Assay results taken from ChEMBL document CHEMBL2202954, “The effect of PLC-γ2 inhibitors on the growth of human tumour cells” (2012).

Legend:
Type in all cases: functional
[1] = test system: BT-549; experiment: Cytotoxicity against human BT549 cells assessed as cellular growth at 10 uM by SRB assay
[2] = test system: MDA-MB-231; experiment: Cytotoxicity against human MDA-MB-231 cells assessed as cellular growth at 10 uM by SRB assay
[3] = test system: MCF7; experiment: Cytotoxicity against human MCF7 cells assessed as cellular growth at 10 uM by SRB assay
[4] = test system: PC-3; experiment: Cytotoxicity against human PC3 cells assessed as cellular growth at 10 uM by SRB assay
[5] = test system: A498; experiment: Cytotoxicity against human A498 cells assessed as cellular growth at 10 uM by SRB assay
[6] = test system: OVCAR-8; experiment: Cytotoxicity against human OVCAR8 cells assessed as cellular growth at 10 uM by SRB assay
[7] = test system: UACC-257; experiment: Cytotoxicity against human UACC257 cells assessed as cellular growth at 10 uM by SRB assay
[8] = test system: SK-MEL-2; experiment: Cytotoxicity against human SK-MEL-2 cells assessed as cellular growth at 10 uM by SRB assay
[9] = test system: U-251; experiment: Cytotoxicity against human U251 cells assessed as cellular growth at 10 uM by SRB assay
[10] = test system: SNB-75; experiment: Cytotoxicity against human SNB75 cells assessed as cellular growth at 10 uM by SRB assay
[11] = test system: SNB-19; experiment: Cytotoxicity against human SNB19 cells assessed as cellular growth at 10 uM by SRB assay
[12] = test system: SF-539; experiment: Cytotoxicity against human SF539 cells assessed as cellular growth at 10 uM by SRB assay
[13] = test system: SW-620; experiment: Cytotoxicity against human SW620 cells assessed as cellular growth at 10 uM by SRB assay
[14] = test system: HT-29; experiment: Cytotoxicity against human HT-29 cells assessed as cellular growth at 10 uM by SRB assay
[15] = test system: HCC 2998; experiment: Cytotoxicity against human HCC2998 cells assessed as cellular growth at 10 uM by SRB assay
[16] = test system: COLO 205; experiment: Cytotoxicity against human COLO205 cells assessed as cellular growth at 10 uM by SRB assay
[17] = test system: NCI-H460; experiment: Cytotoxicity against human NCI-H460 cells assessed as cellular growth at 10 uM by SRB assay
[18] = test system: NCI-H226; experiment: Cytotoxicity against human NCI-H226 cells assessed as cellular growth at 10 uM by SRB assay
[19] = test system: MOLT-4; experiment: Cytotoxicity against human MOLT4 cells assessed as cellular growth at 10 uM by SRB assay
[20] = test system: CCRF-CEM; experiment: Cytotoxicity against human CCRF-CEM cells assessed as cellular growth at 10 uM by SRB assay

SMILES	Activity [1]	Activity [2]	Activity [3]	Activity [4]	Activity [5]	Activity [6]	Activity [7]	Activity [8]	Activity [9]	Activity [10]	Activity [11]	Activity [12]	Activity [13]	Activity [14]	Activity [15]	Activity [16]	Activity [17]	Activity [18]	Activity [19]	Activity [20]
COc1ccc(NC(=O)c2sc3nc4c(cc3c2N)C(=O)CCC4)cc1	103.09%	116.49%	104.14%	99.67%	39.38%	107.58%	117.22%	114.87%	106.61%	103.13%	116.74%	102.64%	111.85%	108.88%	94.7%	122.21%	96.07%	95.31%	115.9%	88.17%
O=c1/c(=C/c2ccc(Cl)cc2Cl)sc2nc(-c3ccccc3)nn12	122.09%	98.54%	103.07%	106.44%	112.37%	110.37%	112.2%	107.26%	103.07%	116.38%	102.51%	121.38%	107.15%	115.55%	117.6%	132.3%	106.83%	98.92%	88.5%	95.93%
Cc1cccc(-c2nc(-c3cccs3)no2)c1	88.13%	76.61%	39.04%	80.3%	82.09%	98.72%	93.98%	100.25%	82.28%	85.75%	106.75%	115.88%	90.68%	98.29%	80.51%	111.56%	94.9%	94.62%	96.35%	91.12%
Clc1ccc(-c2nc(-c3cccs3)no2)cc1	111.04%	81.39%	36.78%	103.14%	93.08%	106.56%	109.98%	116.4%	90.3%	81.53%	103.81%	92.56%	105.71%	106.39%	32.91%	113.89%	110.35%	100.24%	86.35%	78.29%
O=C(Nc1nc2ccc(Cl)cc2s1)c1ccc(Cl)cc1	106.78%	98.56%	99.61%	89.01%	94.69%	98.61%	94.31%	111.04%	94.55%	100.74%	125.32%	88.34%	103.76%	107.3%	106.96%	105.29%	98.55%	84.73%	95.76%	96.23%
Cc1ccc(CNC(=O)c2[nH]c3ccccc3c2Cl)cc1	115.69%	112.08%	98.84%	93.19%	69%	99.35%	101.14%	99.35%	92.16%	123.78%	105.35%	110.44%	89.73%	100.16%	101.22%	99.99%	88.87%	96.65%	91.47%	99.93%
O=C(Nc1ccc2oc(=O)ccc2c1)c1ccc(-c2ccc(Cl)c(Cl)c2)o1	77.96%	86.89%	86.24%	73.29%	101.16%	94.2%	97.36%	102.15%	92.91%	92.21%	101.4%	90.55%	100.55%	92.94%	100.84%	121.29%	100.41%	92.4%	73.02%	57.99%
Cc1ccc(C(=O)/C=C2/Nc3ccc(C)cc3OC2=O)cc1	108.86%	88.3%	96.32%	101.93%	86.34%	102.51%	103.75%	123.75%	108.93%	72.48%	104.52%	108.44%	120.18%	106.8%	102.74%	120.49%	117.71%	108.24%	83.44%	77.12%
O=C(Nc1nc2ccccc2s1)c1ccc(F)cc1	109.49%	95.53%	68.1%	96.56%	89.82%	109.5%	107.84%	113.78%	99.72%	96.73%	126.08%	101.66%	112.1%	108.47%	69.88%	117.74%	69.18%	92.69%	100.31%	100.74%
CC1(C)CC(=O)c2cc3c(N)c(C(=O)Nc4ccc(Cl)cc4)sc3nc2C1	124.84%	114.95%	102.6%	104.63%	75.63%	110.67%	91.35%	100.96%	103.14%	113.88%	113.58%	114.18%	108.54%	96.43%	116.11%	116.82%	108.61%	108.39%	104%	97.21%
O=C1N=C(c2ccccc2)S/C1=C\c1ccc2c(c1)OCO2	108.62%	104.95%	101.6%	85.65%	80.95%	96.76%	92.39%	110.33%	90.93%	95.66%	98.6%	95.81%	89.42%	101.51%	118.49%	101.56%	96.54%	95.12%	109.24%	90.34%
